Patent publication USRE50096E1, “Nanoemulsion compositions of taxoid drugs, and methods for the use thereof to target cancer cells and cancer stem cells” (TargaGenix, Inc., priority 2016, dated 2024)
Read-outs that look alike come from different tables or passages of the source.

Columns and labels:
[1] = test system: human CFPAC-1 ductal pancreatic adenocarcinoma xenograft; assay: CFPAC-1 pancreatic adenocarcinoma xenograft in SCID mice; conditions: for tumor growth delay as compared to vehicles: mouse, in vivo
[2] = test system: paclitaxel-resistant, Pgp(+) DLD1 human colon tumor xenograft; assay: DLD1 human colon tumor xenograft in SCID mice
[3] = test system: human PANC-1 pancreatic tumor xenograft; assay: PANC-1 pancreatic tumor xenograft in SCID mice; type: in vivo, RPCI SCID mice; conditions: for complete remissions: mouse, in vivo
From the text: This experiment compared a q7dx3 with a q3dx3 schedule for PX and DHA-SBT-1214 using a human PANC-1 pancreatic tumor xenograft in RPCI SCID mice.

[4] = test system: H460 human non-small cell lung tumor xenograft; assay: H460 non-small cell lung tumor xenograft in SCID mice; conditions: for tumor growth delay: at (about) MTD
[5] = test system: H460 human non-small cell lung tumor xenograft; conditions: mouse, in vivo
[6] = test system: CD133+ PPT2 cells; assay: Stemness gene expression in PPT2 cells (PCR array, Western blot); type: cell-based, human
Procedure: Experiments were carried out with a patient-derived cancer stem cell line for prostate cancer, PPT2 (Botchkina 2013, Rowehl 2014). The cell line PPT2 was generated from a patient-derived prostate cancer tumor. […] The PPT2 cell line was serially propagated as NOD/SCID mice tumor xenografts, floating 3D spheroids and type I collagen-adherent cultures. According to the ATCC report (ID number 002872), the PPT2 cells were unique human cells not contaminated with any known established cell lines. Although phenotype of the CSC-enriched cultures was dynamic due to the dual nature of the CSCs (i.e., ability to self-renew and to generate committed progenitors), the PPT2 cells retained a relatively stable phenotype, even up to 8 weeks after MACS-CD133^+ cell sorting and culturing on type I collagen coated surfaces in serum-free medium. […] Both nuclear and cytoplasmic fractions of the PPT2 cells expressed c-Myc, whereas other pluripotency markers (Oct-4 and Sox-2) were detected only in nuclear fraction. […]
To characterize possible drug induced alterations in stemness gene expression, CD133^+ PPT2 cells were analyzed before and after treatment with a combination of SBT-1214 and CMC 2.24, a chemically-modified curcumin. […]

[7] = test system: DLD-1 spheroids; assay: Colon cancer stem cell 3D spheroids, DLD-1; type: cell-based, human
Procedure: (§1) In another example, stem-cell enriched populations of colon cancer cells were selected from three invasive colon cancer cell lines, HCT116, HT29, and DLD-1. The populations were grown as 3D multicellular spheroids.
DLD-1: CD4, CDH2, COL1A1, DLL1, DTX1, IGF1, FGF3, FZD1, JAG1, KRT15, MSX1, NCAM1 and NOTCH1 (Botchkina, et al., 2010).

[8] = test system: tubulin; conditions: cited from earlier work
[9] = test system: drug resistant cancer cells, expressing MDR phenotypes; conditions: cited from earlier work
[10] = test system: drug resistant (Pgp+) colon tumor xenografts; conditions: mouse, in vivo; cited from earlier work
[11] = test system: HCT116 spheroids; assay: Colon cancer stem cell 3D spheroids, HCT116; type: cell-based, human
Procedure: as §1
HCT116: SOX1, RPL13A, BMP1, BMP3, NEUROG2, GJB1, GJA1, ASCL2, CTNNA1, GDF2, ALPI, S100B, CD8B1, ACTB, CCND1, FGF1, PARD6A, DVL1, GDF3, ISL1, CD3D, MME, FGFR1, RB1, AIN1, ALDH1A1, CD8A, PPARD, FZD1, NUMB and ABCG2;

[12] = test system: HT29 spheroids; assay: Colon cancer stem cell 3D spheroids, HT29; type: cell-based, human
Procedure: as §1
HT29: ACAN, ALPI, BMP3, CD3D, CD4, CD8A, CD8B, CDH2, COL2A1, COL9A1, DHH, DLL1, DLL3, DTX1, FGF1, FGF3, FZD1, GDF2, IGF1, MME, MYOD, NCAM1, NEUROG2, S100B, SOX2, and TERT;

[13] = 80 mg/kg dose on days 5, 8, and 11

Question: For CC/C=C\C/C=C\C/C=C\C/C=C\C/C=C\C/C=C\CCC(=O)O[C@@H](C(=O)O[C@H]1C[C@@]2(O)[C@@H](OC(=O)c3ccccc3)[C@@H]3[C@]4(OC(C)=O)CO[C@@H]4C[C@H](O)[C@@]3(C)C(=O)[C@H](OC(=O)C3CC3)C(=C1C)C2(C)C)[C@H](C=C(C)C)NC(=O)OC(C)(C)C [DHA-SBT-1214], which weight loss ([1]; 240 mg/kg or 300 mg/kg total dose) is on record?
Answer: negligible

Question: And the “complete regression of the DLD-1 tumor” value [2, 13]?
Answer: 5 of 5

Question: What about the tumor growth delay [2, 13] of the same compound?
Answer: > 187 days

Question: And the “maximum tolerated dose (MTD)” value ([3]; 80 mg/kg x 3 inj)?
Answer: 240 mg/kg total dosage

Question: What about the toxic death ([3]; 300 mg/kg total dose) of the same compound?
Answer: one toxic death

Question: And the tumor growth delay ([3]; both schedules, q7dx3 and q3dx3)?
Answer: > 90 days

Question: And the complete remissions [3]?
Answer: achieved complete remissions

Question: And the tumor growth delay [4]?
Answer: 55 days

Question: And the MTD ([4]; mouse, in vivo)?
Answer: ~240 mg/kg total dose

Question: What about the tolerability ([4]; mouse, in vivo) of the same compound?
Answer: clearly better tolerated than SBT-1214

Question: For CC/C=C\C/C=C\C/C=C\C/C=C\C/C=C\C/C=C/CCC(=O)O[C@@H](C(=O)O[C@H]1C[C@@]2(O)[C@@H](OC(=O)c3ccccc3)C3[C@](C)(C(=O)[C@H](OC(C)=O)C(=C1C)C2(C)C)[C@@H](O)C[C@H]1OC[C@@]31OC(C)=O)[C@@H](NC(=O)c1ccccc1)c1ccccc1 (stereo partly shown) [DHA-paclitaxel, reference compound], which “tumor growth delay as compared to vehicles” value [1] is on record?
Answer: only minor tumor growth delay

Question: And the tumor growth delay [4]?
Answer: 3 days

Question: What about the MTD [5] of the same compound?
Answer: 240 mg/kg total dose

Question: Which “expression of p21 and p53” value [6] does the source give for CC(=O)O[C@@]12CO[C@@H]1C[C@H](O)[C@@]1(C)C(=O)[C@H](OC(=O)C3CC3)C3=C(C)[C@@H](OC(=O)[C@H](O)[C@H](C=C(C)C)NC(=O)OC(C)(C)C)C[C@@](O)([C@@H](OC(=O)c4ccccc4)[C@H]21)C3(C)C [SBT-1214] here?
Answer: induced expression

Question: What about the “c-Myc and Sox2 in nuclear extracts (Western blot)” value ([6]; CD133+ and bulk PPT2 cells) of the same compound?
Answer: moderate down-regulation

Question: And the weight loss ([1]; until day 20, 120 mg/kg total dose)?
Answer: < 4%

Question: And the “growth of the secondary spheroids” value ([7]; 100 nM for 48 h)?
Answer: marked suppression

Question: What about the cytotoxicity in spheroids ([7]; 3D multicellular spheroids) of the same compound?
Answer: effectively induced cytotoxicity

Question: And the stemness-associated genes ([7]; gene list)?
Answer: downregulated

Question: And the “time to polymerize tubulin” value [8]?
Answer: a matter of minutes

Question: And the “potency relative to paclitaxel” value [9]?
Answer: 2-3 orders of magnitude

Question: What about the “long-term regression and tumor growth delay” value [10] of the same compound?
Answer: 167 days

Question: What about the tumor growth delay [10] of the same compound?
Answer: > 187 days

Question: What about the tumor regression [10] of the same compound?
Answer: complete regression in all surviving mice

Question: What about the “growth of the secondary spheroids” value ([11]; 100 nM for 48 h) of the same compound?
Answer: marked suppression

Question: And the cytotoxicity in spheroids ([11]; 3D multicellular spheroids)?
Answer: effectively induced cytotoxicity

Question: What about the stemness-associated genes ([11]; gene list) of the same compound?
Answer: downregulated

Question: What about the tumor growth delay [4] of the same compound?
Answer: 34 days

Question: What about the MTD ([4]; mouse, in vivo) of the same compound?
Answer: ~120 mg/kg total dose

Question: What about the “growth of the secondary spheroids” value ([12]; 100 nM for 48 h) of the same compound?
Answer: marked suppression

Question: What about the cytotoxicity in spheroids ([12]; 3D multicellular spheroids) of the same compound?
Answer: effectively induced cytotoxicity

Question: What about the stemness-associated genes ([12]; gene list) of the same compound?
Answer: downregulated

Question: Which “tumor growth delay as compared to vehicles” value [1] does the source give for CC(=O)O[C@H]1C(=O)[C@@]2(C)[C@H]([C@H](OC(=O)c3ccccc3)[C@]3(O)C[C@H](OC(=O)[C@H](O)[C@@H](NC(=O)c4ccccc4)c4ccccc4)C(C)=C1C3(C)C)[C@]1(OC(C)=O)CO[C@@H]1C[C@@H]2O [paclitaxel, reference compound] here?
Answer: only minor tumor growth delay

Question: And the “time to polymerize tubulin” value [8]?
Answer: hours

Question: And the “efficacy against tumor xenograft” value ([2]; s.c. xenograft)?
Answer: totally ineffective

Question: And the complete remissions [3]?
Answer: no complete remissions

Question: What about the tumor growth delay ([3]; q3dx3 schedule) of the same compound?
Answer: 13 days

Question: What about the tumor growth delay ([3]; q7dx3 schedule) of the same compound?
Answer: 18 days

Question: What about the tumor growth delay [4] of the same compound?
Answer: 8 days

Question: And the MTD ([4]; mouse, in vivo)?
Answer: 75 mg/kg total dose
